Measurements taken from US20120128630A1, “1-(6 MEMBERS AZO-HETEROCYCLIC)-PYRROLIN-2-ONE COMPOUNDS AS INHIBITORS OF HEPATITIS C NS5B POLYMERASE, THE PHARAMACEUTICAL COMPOSITION THEREOF AND THEIR THERAPEUTIC USE” (priority 2009, published 2012).

System: not given
Assay: not given
Conditions: not given

Structure (SMILES)	melting point
COC(=O)c1ccc(N2C(=O)C(O)=C(C(=O)c3ccc(C)cc3)C2c2ccc(C(C)(C)C)cc2)nc1 (stereo not drawn)	287 to 288 °C
COc1ccc(C(=O)C2=C(O)C(=O)N(c3ccc(C)nn3)C2c2ccc(OC(F)(F)F)cc2)cn1 (stereo not drawn)	250 to 251 °C
CCOc1ccc(C2C(C(=O)c3ccc(C(C)C)cc3)=C(O)C(=O)N2c2ccc(C)nn2)nc1 (stereo not drawn)	198 to 199 °C
CC(=O)c1ccc(C2C(C(=O)c3ccc(C(C)C)cc3)=C(O)C(=O)N2c2ccc(C)nn2)cc1 (stereo not drawn)	259 to 266 °C
Cc1ccc(N2C(=O)C(O)=C(C(=O)c3ccc(C(C)C)cc3)C2c2ccc(F)cc2)nn1 (stereo not drawn)	273 to 278 °C
Cc1ccc(N2C(=O)C(O)=C(C(=O)c3ccc(C(C)C)cc3)C2c2ccc(O)cc2)nn1 (stereo not drawn)	222 to 224 °C
Cc1ccc(N2C(=O)C(O)=C(C(=O)c3ccc(C(C)C)cc3)C2c2ccc(Cn3cnnn3)cc2)nn1 (stereo not drawn)	> 300 °C
Cc1ccc(N2C(=O)C(O)=C(C(=O)c3ccc(C(C)C)cc3)C2c2ccc(Cn3cncn3)cc2)nn1 (stereo not drawn)	223 °C
Cc1ccc(N2C(=O)C(O)=C(C(=O)c3ccc(C(C)C)cc3)C2c2ccc(-n3cncn3)cc2)nn1 (stereo not drawn)	284 °C
Cc1ccc(N2C(=O)C(O)=C(C(=O)c3ccc(C(C)C)cc3)C2c2ccc(Cn3cccn3)cc2)nn1 (stereo not drawn)	263 °C
Cc1ccc(N2C(=O)C(O)=C(C(=O)c3ccc(C(C)C)cc3)C2c2ccc(Cn3ccnn3)cc2)nn1 (stereo not drawn)	293 °C
Cc1ccc(N2C(=O)C(O)=C(C(=O)c3ccc(C(C)C)cc3)C2c2ccc(Cn3ncnn3)cc2)nn1 (stereo not drawn)	271 °C
Cc1ccc(N2C(=O)C(O)=C(C(=O)c3ccc(OC(F)(F)F)cc3)C2c2ccc(Cn3ncnn3)cc2)nn1 (stereo not drawn)	258 °C
Cc1ccc(N2C(=O)C(O)=C(C(=O)c3ccc(OC(F)(F)F)cc3)C2c2ccc(Cn3ccnn3)cc2)nn1 (stereo not drawn)	275 °C
Cc1ccc(N2C(=O)C(O)=C(C(=O)c3ccc(OC(F)(F)F)cc3)C2c2ccc(Cn3nccn3)cc2)nn1 (stereo not drawn)	277 °C
Cc1ccc(N2C(=O)C(O)=C(C(=O)c3ccc(OC(F)(F)F)cc3)C2c2ccc(Cn3cnnn3)cc2)nn1 (stereo not drawn)	> 300 °C
Cc1ccc(N2C(=O)C(O)=C(C(=O)c3ccc(OC(F)(F)F)cc3)C2c2ccc(Cn3cncn3)cc2)nn1 (stereo not drawn)	224 °C
Cc1ccc(N2C(=O)C(O)=C(C(=O)c3cccc(Cl)c3)C2c2ccc(C(C)C)cc2)nn1 (stereo not drawn)	271 °C
Cc1ccc(N2C(=O)C(O)=C(C(=O)c3ccc(C(C)C)cc3)C2c2ccc(Oc3ccccn3)cc2)nn1 (stereo not drawn)	280 °C
Cc1ccc(N2C(=O)C(O)=C(C(=O)c3ccc(C(C)C)cc3)C2c2ccc(-c3nnc(C)o3)cc2)nn1 (stereo not drawn)	293 °C
Cc1ccc(N2C(=O)C(O)=C(C(=O)c3ccccc3C)C2c2ccc(C(C)C)cc2)nn1 (stereo not drawn)	221 °C
COc1cccc(C2C(C(=O)c3ccc(C)cc3)=C(O)C(=O)N2c2ccc(C)nn2)c1 (stereo not drawn)	265 °C
COc1ccc(C2C(C(=O)c3ccc(C)cc3)=C(O)C(=O)N2c2ccc(C)nn2)cc1 (stereo not drawn)	266 °C

Structure (SMILES)	melting point
COc1ccc(C(=O)C2=C(O)C(=O)N(c3ccc(C)nn3)C2c2ccc(OC)cc2)cc1 (stereo not drawn)	259 °C
Cc1ccc(C(=O)C2=C(O)C(=O)N(c3ccc(C)nn3)C2c2cccc(C(F)(F)F)c2)cc1 (stereo not drawn)	232 °C
COC(=O)c1ccc(N2C(=O)C(O)=C(C(=O)c3ccc(C)cc3)C2c2ccc(C(C)C)cc2)nc1 (stereo not drawn)	264 to 266 °C
COc1ccccc1C1C(C(=O)c2ccc(C)cc2)=C(O)C(=O)N1c1ccc(C)nn1 (stereo not drawn)	211 to 213 °C
Cc1cccc(C(=O)C2=C(O)C(=O)N(c3ccc(C)nn3)C2c2ccc(C(C)C)cc2)c1 (stereo not drawn)	245 to 250 °C
Cc1ccc(C(=O)C2=C(O)C(=O)N(c3ccc(C(C)C)nn3)C2c2ccc(C(C)C)cc2)cc1 (stereo not drawn)	269 to 270 °C
Cc1ccc(N2C(=O)C(O)=C(C(=O)c3ccc(C(C)C)cc3)C2c2ccc(N3CCN(C)CC3)cc2)nn1 (stereo not drawn)	198 to 203 °C
Cc1ccc(N2C(=O)C(O)=C(C(=O)c3ccc(C(C)C)cc3)C2c2ccc(OCCN3CCOCC3)cc2)nn1 (stereo not drawn)	256 °C
Cc1ccc(C(=O)C2=C(O)C(=O)N(c3ccc(C)nn3)C2c2ccc(OC3CCN(C)CC3)cc2)cc1 (stereo not drawn)	259 to 260 °C
COc1ccc(C2C(C(=O)c3ccc(N4CCOCC4)cc3)=C(O)C(=O)N2c2ccc(C)nn2)cc1 (stereo not drawn)	232 °C
Cc1ccc(N2C(=O)C(O)=C(C(=NOCC(=O)O)c3ccc(C(C)C)cc3)C2c2ccc(C(C)C)cc2)nn1 (stereo not drawn)	234 °C
Cc1ccc(C(=O)C2=C(O)C(=O)N(c3ccc(C)nn3)C2c2ccc(C)cc2C)cc1 (stereo not drawn)	254 °C
Cc1ccc(C(=O)C2=C(O)C(=O)N(c3ccc(C)nn3)C2c2ccc(OCCN(C)C)cc2)cc1 (stereo not drawn)	263 to 266 °C
Cc1ccc(C(=O)C2=C(O)C(=O)N(c3ccc(C(F)(F)F)cn3)C2c2ccc(C(C)C)cc2)cc1 (stereo not drawn)	255 to 257 °C
Cc1ccc(C(=O)C2=C(O)C(=O)N(c3ccc(C)nn3)C2c2ccc(N3CCN(CCN(C)C)CC3)cc2)cc1 (stereo not drawn)	185.3 °C
COc1ccc(COc2ccc(C(=O)C3=C(O)C(=O)N(c4ccc(C)nn4)C3c3ccc(OC(F)(F)F)cc3)cc2)cc1 (stereo not drawn)	206 to 209 °C
COC1=C(C(=O)c2ccc(C)cc2)C(c2ccc(OC(F)(F)F)cc2)N(c2ccc(C)nn2)C1=O (stereo not drawn)	206 to 207 °C
COC1=C(C(=O)c2ccc(C)cc2)C(c2ccc(C(C)C)cc2)N(c2ccc(C)nn2)C1=O (stereo not drawn)	248 to 249 °C
Cc1ccc(N2C(=O)C(O)=C(C(=O)c3ccc(-c4ccccn4)cc3)C2c2ccc(OC(F)(F)F)cc2)nn1 (stereo not drawn)	247 to 249 °C
Cc1ccc(N2C(=O)C(O)=C(C(=NOCC(=O)O)c3ccc(C(C)C)cc3)C2c2ccc(OC(F)(F)F)cc2)nn1 (mixture of isomers) [Example 83, [[4-Hydroxy-1-(6-methyl-pyridazin-3-yl)-5-oxo-2-(4-trifluoromethoxy-phenyl)-2,5-dihydro-1H-pyrrol-3-yl]-(4-isopropyl-phenyl)-methyleneaminooxy]-acetic acid]	227 °C
COCCON=C(C1=C(O)C(=O)N(c2ccc(C)nn2)C1c1ccc(OC(F)(F)F)cc1)c1ccc(C(C)C)cc1 (mixture of isomers) [Example 84, 3-Hydroxy-4-{(4-isopropyl-phenyl)-[2-methoxy-ethoxyimino]-methyl}-1-(6-methyl-pyridazin-3-yl)-5-(4-trifluoromethoxy-phenyl)-1,5-dihydro-pyrrol-2-one]	115 to 118 °C
Cc1ccc(C(=O)C2=C(O)C(=O)N(c3ccc(C)nn3)C2c2ccc(C(F)(F)F)cc2)cc1 (stereo not drawn) [Example 18, 3-hydroxy-4-(4-methyl-benzoyl)-1-(6-methyl-pyridazin-3-yl)-5-(4-trifluoromethyl-phenyl)-1,5-dihydro-pyrrol-2-one]	278 °C

Target: T1, HCV NS5B genotype 1b (Hepatitis C virus genotype 1b, UniProt Q9WMX2)
T1 construct: The protein was expressed with a 21 amino acid C-terminal deletion to remove transmembrane domain; expressed in transfected cells; host or cells: Huh-7
Assay: 3D-SCREEN assay (NS5B 3D-Screen platform, luciferase reporter gene)
Assay type: cell-based
Conditions: EC50_3DS_NS5B, Table 1, 3D-SCREEN assay results; Huh-7 cells, 24 hours with compound, firefly luciferase reporter
Source text: cDNA encoding HCV NS5B genotype 1b, was cloned in frame with Gal4-DNA Binding Domain. The protein was expressed with a 21 amino acid C-terminal deletion to remove transmembrane domain. Expression of NS5BΔ21/Gal4 DBD fusion protein was under control of SV40 early promoter. 3D-Sensor peptide was cloned in frame with VP16 activation domain. Expression of 3D-Sensor/VP16 AD fusion protein was under control of CMV promoter. Expression of the firefly luciferase reporter gene was inducible by the [Target protein/conformation sensitive peptide/VP16AD] complex.
It is a single-target, cell based assay. Briefly, expression of a reporter gene depends on the interaction of a short peptide, thereafter named 3D-Sensor, and native conformation of the target protein. Whenever the conformation of the target protein is modified, interaction between 3D-sensor and target protein is disrupted and reporter gene is not expressed anymore. Conformation modifiers are identified by loss of expression of reporter gene. NS5B 3D-Screen platform was generated in Huh-7 cell lines by transient transfection of three expression vectors encoding respectively
(i) HCV NS5BΔ21/Gal4-DBD fusion protein
(ii) the 3D-sensor peptide I4/VP16 fusion protein
(iii) the firefly luciferase reporter gene
Huh-7 cells were dissociated the day before transfection and seeded in T175 flasks at a density of 10^7 cells in 30 ml culture medium. Equimolar ratios of vectors were transfected in cell according to optimized jetPEI transfection protocol (PolyPlus Transfection, Illkirch, France) and 10 μg total DNA/10^6 cells. Transfection was performed for 2 hours at 37° C. and 5% CO2 in a humidified atmosphere. After two hours cells were dissociated and seeded in 96 wells plates at a density of 25,000 cells per well and 90 μl culture medium. 10 μl of compounds to be tested were added 2 hours after seeding. Final concentration of DMSO was 1%. Cells were incubated in the presence of compounds for 24 hours after which expression of firefly luciferase reporter gene was quantified. Briefly, culture medium was removed and cells were lysed by addition of 100 μl of lysis buffer containing 125 mM Tris Phosphate ph 7.8, 10 mM EDTA, 5 mM DTT, 50% glycerol and 5% Triton. Plates were vortexed 10 min at 1300 rpm. Cell lysat was transferred in OpaqueWhite Assay 96 well Flat Bottom plates. 100 μl of luciferin solution 1× were added to each well. Luciferin solution contained 40 mM Tris Phosphate ph 7.8, 0.2 mM EDTA, 67 mM DTT, 2.14 mM MgCl2, 5.4 mM MgSO4, 4.7×10^−4 M luciferin, 5.3×10^−4 M ATP and 2.7×10^−4 M Acetyl co enzyme A. Luminescence was immediately measured with Berthold Microlumat Plus LB 96V luminometer with an integration of 0.5 sec. Inhibition was calculated using the formula: % inhibition=(1−(read/average max))*100. Average max=signal in absence of compound

Structure (SMILES)	EC50
Cc1ccc(N2C(=O)C(O)=C(C(=NOCC(=O)O)c3ccc(C(C)C)cc3)C2c2ccc(OC(F)(F)F)cc2)nn1 (mixture of isomers) [Example 83, [[4-Hydroxy-1-(6-methyl-pyridazin-3-yl)-5-oxo-2-(4-trifluoromethoxy-phenyl)-2,5-dihydro-1H-pyrrol-3-yl]-(4-isopropyl-phenyl)-methyleneaminooxy]-acetic acid]	8 µM
COCCON=C(C1=C(O)C(=O)N(c2ccc(C)nn2)C1c1ccc(OC(F)(F)F)cc1)c1ccc(C(C)C)cc1 (mixture of isomers) [Example 84, 3-Hydroxy-4-{(4-isopropyl-phenyl)-[2-methoxy-ethoxyimino]-methyl}-1-(6-methyl-pyridazin-3-yl)-5-(4-trifluoromethoxy-phenyl)-1,5-dihydro-pyrrol-2-one]	3 µM
Cc1ccc(C(=O)C2=C(O)C(=O)N(c3ccc(C)nn3)C2c2ccc(C(F)(F)F)cc2)cc1 (stereo not drawn) [Example 18, 3-hydroxy-4-(4-methyl-benzoyl)-1-(6-methyl-pyridazin-3-yl)-5-(4-trifluoromethyl-phenyl)-1,5-dihydro-pyrrol-2-one]	1 µM

Same assay, conditions: EC50_3DS_NS5B, Table 2, titled Replicon assay results

Structure (SMILES)	EC50
Cc1ccc(N2C(=O)C(O)=C(C(=O)c3ccc(C(C)C)cc3)C2c2ccc(C(C)(F)F)nc2)nn1 (stereo not drawn) [Example 187, 5-[6-(1,1-difluoro-ethyl)-pyridin-3-yl]-3-hydroxy-4-(4-isopropyl-benzoyl)-1-(6-methyl-pyridazin-3-yl)-1,5-dihydro-pyrrol-2-one]	< 1 µM
Cc1ccc(N2C(=O)C(O)=C(C(=O)c3ccc(C(C)C)cc3)[C@@H]2c2ccc(C(F)(F)F)nc2)nn1 [Example 194, 3-hydroxy-4-(4-isopropyl-benzoyl)-1-(6-methyl-pyridazin-3-yl)-5(S)-(6-trifluoromethyl-pyridin-3-yl)-1,5-dihydro-pyrrol-2-one]	< 10 µM
Cc1ccc(N2C(=O)C(O)=C(C(=O)c3ccc(C(C)C)cc3)[C@@H]2c2ccc(C(C)(F)F)cc2)nn1 [Example 197, 5(S)-[4-(1,1-difluoro-ethyl)-phenyl]-3-hydroxy-4-(4-isopropyl-benzoyl)-1-(6-methyl-pyridazin-3-yl)-1,5-dihydro-pyrrol-2-one]	< 10 µM
